Positions of bridges follow the written chain, without caps; N, C: chain ends. Residues, ends and D or L forms follow the SMILES beside them.
Legend:
[1] = test system: Primary human neonatal foreskin epithelial cells; assay: Toxicity in primary cells, phase contrast morphology; assay type: cell-based
Protocol: (§1) Toxicological studies of DB2121 in human cells were also undertaken. Primary human neonatal foreskin epithelial cells were used to examine DB2121 toxicity, using a method as described in Min et al. 2004. Nat Biotechnol 22:717-23, the contents of which are incorporated herein by reference. Briefly, when the cells were in log phase, (A) 50 μM DB2121, B) 50 μM Histatin H5, (C) 50 μM ketoconazole, or (D) DMSO was added to the culture medium. At 18 and 36 hours following addition of compound, the foreskin epithelial cells were imaged using phase contract microscopy at 20× magnification. Immediately following the image analysis, proteins were extracted, separated on SDS-PAGE gels, Western blotted, and probed for phosphorylated and non-phosphorylated ERK 1, 2 to monitor cell spreading/migration and/or proliferation of the foreskin keratinocytes. The experiments was repeated three times.

phosphorylated ERK 1, 2 = assay: Western blot for phosphorylated ERK 1, 2 in primary cells; assay type: cell-based, human; conditions: 50 μM, primary cell lysates
Protocol: as §1
It was then investigated whether or not these phenotypes were reflected at the molecular level. The primary cells were lysed and monitored for a marker of proliferation namely, phosphorylated ERK 1, 2.

[2] = test system: primary human foreskin epithelial cell culture; assay: Viable cell number (trypan exclusion) in primary cell culture; assay type: cell-based; conditions: various concentrations, 0, 36 and 72 hours; vs 50 μM ketoconazole; FIG. 3
Protocol: To determine range of non-toxic concentrations of DB2121, various concentrations of DB2121, 50 μM ketoconazole or DMSO as a control were separately added to primary human foreskin epithelial cell culture. At 0, 36 and 72 hours after addition, the epithelial cells were titrated off the culture plate and the viable cell number was determined. The experiment was performed in triplicate. At 72 hours, the foreskin epithelial cells exposed to the various compounds were imaged at 20× magnification using phase contrast microscopy. For cell counting, the epithelial cells were stained with trypan exclusion stain to monitor cell viability.

[3] = Tolerability in mice, intra-peritoneal injection; assay type: in vivo
Protocol: (§2) In addition, mice were able to withstand a concentration of 15 mg/kg of DB2121 when injected via an intra-peritoneal route. When injected into adult rats, a concentration of up to and including 1.5 mg/kg caused no harm when injected intra-venously.

[4] = Tolerability in adult rats, intra-venous injection; assay type: in vivo
Protocol: as §2

[5] = Stability in human saliva in vitro by mass spectrometry; assay type: in vitro ADME; conditions: 1 uM, 37° C.
Protocol: DB2121 cyclic analogue was determined to be stable in vitro in human saliva for at least 72 hours as determined by mass spectrometry. The cyclic analogue was incubated in human saliva at a concentration of 1 uM and at a temperature of 37° C. in vitro. At various time points from 0 to 72 hours, 1.0 ul aliquots were taken and injected directly into a Micromass Quattro Micro mass spectrometer. Data was collected for a total of 3 minutes. The data was then processed using Mass Lynx 4.0 Analysis software.
The expected average mass of the cyclic histatin analogue in its active form is expected to be 2557.93. […] The peaks within an acceptable error of approximately 1 mass unit corresponding to cyclic histatin analogue were 2556.95 at 0 hours, 2557.65 at 24 hours, and 2557.10 at 72 hours incubation.

| SMILES | toxicity to human primary cells ([1]; working concentrations of 50 μM, conclusion from morphology and ERK studies) | ERK 1, 2 activation (phosphorylated ERK 1, 2) vs control (phosphorylated ERK 1, 2) | toxicity in primary cultured cells (viable cell number) [2] | concentration (dose) mice were able to withstand [3] [mg/kg] | concentration (dose) that caused no harm [4] [mg/kg] | time stable in human saliva [5] | cell morphology ([1]; 50 μM, 18 and 36 hours, phase contrast 20×) |
| --- | --- | --- | --- | --- | --- | --- | --- |
| N=C(N)NCCC[C@H](NC(=O)[C@H](Cc1c[nH]cn1)NC(=O)[C@@H]1CSSC[C@H](NC(=O)[C@H](Cc2c[nH]cn2)NC(=O)[C@H](Cc2c[nH]cn2)NC(=O)[C@@H](N)CCCNC(=N)N)C(=O)N[C@@H](Cc2ccc(O)cc2)C(=O)N[C@@H](CCCCN)C(=O)N[C@@H](CCCNC(=N)N)C(=O)N[C@@H](CCCCN)C(=O)N[C@@H](Cc2ccccc2)C(=O)N[C@@H](Cc2c[nH]cn2)C(=O)N[C@@H](CCC(=O)O)C(=O)N[C@@H](CCCCN)C(=O)N[C@@H](Cc2c[nH]cn2)C(=O)N[C@@H](Cc2c[nH]cn2)C(=O)N1)C(=O)NCC(=O)N[C@@H](Cc1ccc(O)cc1)C(=O)O [DB2121, N-RHHCYKRKFHEKHHCHRGY-C] (H-RHHCYKRKFHEKHHCHRGY-OH; disulfide 4-15; N-terminus and C-terminus assumed) | non-toxic | not suppressed | minimal toxicity | 15 | ≤ 1.5 | at least 72 hours | – |
| CC(=O)N1CCN(c2ccc(OCC3COC(Cn4ccnc4)(c4ccc(Cl)cc4Cl)O3)cc2)CC1 (centres unmarked) [ketoconazole, Ketoconazole, reference compound] | – | Significant inhibition of ERK 1, 2 activation | – | – | – | – | morphologically normal except when treated with ketoconazole |
